Non-standard residues stand in square brackets, D forms with d. Residues, ends and D or L forms follow the SMILES beside them. Nle = CCCC[C@H](N)C(=O)O
Tests used:
Parameters in all cases: species or system Homo sapiens
[1] = Inhibition of CAPN5 G267S mutant (unknown origin) using DABCYL-TPLKSPPPSPR-EDANS as substrate incubated for 30 mins and measured by High-throughput FRET-based assay
[2] = Inhibition of CAPN5 R243L mutant (unknown origin)
[3] = Inhibition of wild-type CAPN5 (unknown origin)

CCCC[C@@H](C=O)NC(=O)[C@H](CC(C)C)NC(=O)[C@H](CC(C)C)NC(C)=O (Ac-Leu-Leu-[Nle]-aldehyde)
IC50 [1]: 136 nM

CC[C@H](C)[C@H](NC(=O)[C@H](CCC(=O)O)NC(=O)[C@@H](NC(=O)[C@@H](N)CCCCN)[C@@H](C)CC)C(=O)N[C@H](C(=O)N[C@@H](CCCNC(=N)N)C(=O)N[C@@H](CCCCNC)C(=O)N[C@@H](CCCCN)C(=O)N1CCC[C@H]1C(=O)N[C@H](C(=O)N[C@@H](Cc1ccccc1)C(=O)N[C@@H](CCCCN)C(=O)N[C@@H](CCCCN)C(=O)N[C@@H](C)C(=O)N[C@H](C(=O)N[C@H](C(=O)O)C(C)C)[C@@H](C)O)[C@@H](C)CC)C(C)C (HELM PEPTIDE1{K.I.E.I.V.R.[CNCCCC[C@H](N[*:1])C(=O)[*:2]].K.P.I.F.K.K.A.T.V}$$$$V2.0)
IC50 ([2]; read-out: IC50): 29.5 nM
IC50 [1]: 3.6 nM
IC50 [3]: 24000 nM

CC[C@H](C)[C@H](NC(=O)[C@H](CCC(=O)O)NC(=O)[C@@H](NC(=O)[C@@H](N)CCCCN)[C@@H](C)CC)C(=O)N[C@H](C(=O)N[C@@H](CCCNC(=N)N)C(=O)N[C@@H](CCCCNC)C(=O)N[C@@H](CCCCNC)C(=O)N1CCC[C@H]1C(=O)N[C@H](C(=O)N[C@@H](Cc1ccccc1)C(=O)N[C@@H](CCCCN)C(=O)N[C@@H](CCCCN)C(=O)N[C@@H](C)C(=O)N[C@H](C(=O)N[C@H](C(=O)O)C(C)C)[C@@H](C)O)[C@@H](C)CC)C(C)C (HELM PEPTIDE1{K.I.E.I.V.R.[CNCCCC[C@H](N[*:1])C(=O)[*:2]].[CNCCCC[C@H](N[*:1])C(=O)[*:2]].P.I.F.K.K.A.T.V}$$$$V2.0)
IC50 ([2]; read-out: IC50): 126 nM
IC50 [1]: 1200 nM
IC50 [3]: 496 nM

CCCC[C@@H](C=O)NC(=O)[C@H](CC(C)C)NC(=O)OCc1ccccc1 [CALPEPTIN]
IC50 [2]: Not Active
IC50 [1]: 1100 nM
IC50 [3]: 8.35 nM

CC(=O)N[C@@H](CC(C)C)C(=O)N[C@@H](CC(C)C)C(=O)N[C@H](C=O)CCCNC(=N)N [LEUPEPTIN]
IC50 [2]: Not Active
IC50 [3]: 165 nM

Reference: ChEMBL document CHEMBL5052849, “Compositions and methods for measuring and inhibiting calpain-5 activity” (2021)
